The results in this text go back to ChEMBL document CHEMBL1139588, “Ketoheterocycle-based inhibitors of cathepsin K: a novel entry into the synthesis of peptidic ketoheterocycles” (Bioorg Med Chem Lett, 2005).

Broadly, the inhibition is how much of the control response was suppressed. In general, IC50 refers to the point on the concentration scale where inhibition reaches its midpoint. Read a low IC50 as greater potency.

For experiment [1], the target named is T1, Cathepsin K (Homo sapiens) (UniProt P43235).
T1 sequence (whole entry): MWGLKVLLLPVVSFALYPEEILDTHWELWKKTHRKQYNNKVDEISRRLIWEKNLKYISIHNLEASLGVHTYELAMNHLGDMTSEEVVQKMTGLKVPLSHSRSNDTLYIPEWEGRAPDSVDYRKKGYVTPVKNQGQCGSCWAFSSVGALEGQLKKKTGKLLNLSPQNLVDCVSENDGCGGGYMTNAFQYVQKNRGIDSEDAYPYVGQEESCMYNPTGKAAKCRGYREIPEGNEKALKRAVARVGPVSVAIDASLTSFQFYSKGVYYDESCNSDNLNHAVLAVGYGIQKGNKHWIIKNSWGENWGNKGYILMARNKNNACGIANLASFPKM
Briefly: Percentage inhibition of 10 uM Cbz-Phe-Arg-AMC binding to human cathepsin K at 12.6 uM by fluorescence assay.

Another experiment has as its target T2, Cathepsin K (Homo sapiens, UniProt P43235).
T2 sequence (P43235 whole entry): T1 sequence (whole entry)
Briefly: Inhibition of 10 uM Cbz-Phe-Arg-AMC binding to human cathepsin K by fluorescence assay.

In experiment [2] the target is Cathepsin (L and K) (Homo sapiens) (UniProt P43235+P07711). Briefly: Ratio of inhibitory potency against cathepsins L and K using 5 uM Cbz-Phe-Arg-AMC in fluorescence assay. The experiment is classed as protein assay.
The species named for experiment [3] is Homo sapiens. Briefly: Ratio of inhibitory potency against cathepsins K and V using 2 uM Cbz-Phe-Arg-AMC in fluorescence assay.
The species entered for experiment [4] is Homo sapiens. Briefly: Ratio of inhibitory potency against cathepsins K and S using 10 uM Cbz-Phe-Arg-AM in fluorescence assay.
The species entered for experiment [5] is Homo sapiens. Briefly: Ratio of inhibitory potency against cathepsins K and B using 10 uM Cbz-Phe-Arg-AMC in fluorescence assay.

Cathepsin (L and K) (Homo sapiens), sequence (P07711 whole entry, looked up, one chain of several): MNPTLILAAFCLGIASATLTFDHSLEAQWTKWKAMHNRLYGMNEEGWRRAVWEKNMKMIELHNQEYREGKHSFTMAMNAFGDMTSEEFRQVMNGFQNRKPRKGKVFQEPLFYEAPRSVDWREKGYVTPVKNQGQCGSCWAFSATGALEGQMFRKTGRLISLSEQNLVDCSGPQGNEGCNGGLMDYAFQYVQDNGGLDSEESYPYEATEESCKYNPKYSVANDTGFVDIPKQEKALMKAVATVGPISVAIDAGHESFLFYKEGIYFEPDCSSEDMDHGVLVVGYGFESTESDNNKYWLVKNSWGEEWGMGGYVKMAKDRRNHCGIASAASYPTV

In the case of `CCOC(=O)c1csc(C(=O)CNC(=O)OC(CC)Cc2ccccc2)n1` (stereo unspecified), in experiment [1], the inhibition turned out to be 0%.
On Cathepsin K, `CCCC[C@H](NC(=O)O[C@@H](C)CC1CCCCC1)C(=O)c1nc(-c2ccccc2)cs1` returned an IC50 of 7.1 µM.
In turn, `CCCC[C@H](NC(=O)OC(Cc1ccccc1)C(C)C)C(=O)c1nc(C(=O)OCC)cs1` (stereo partly specified) came in with an inhibition in experiment [1] of 28%.
As for `CCCC[C@H](NC(=O)O[C@@H](C)CC1CCCCC1)C(=O)c1nc(C(=O)OCC)cs1`, the IC50 at Cathepsin K was 0.23 µM. Moreover, the Ratio (in experiment [2]; in the experiment listed under Homo sapiens [3]; in the experiment filed under Homo sapiens [4]; in the experiment filed under Homo sapiens [5]) was > 40 in each case.
As for `CCCC[C@H](NC(=O)OC(Cc1ccccc1)CC(C)C)C(=O)c1nc(C(=O)OCC)cs1` (stereo partly specified), the inhibition in experiment [1] was 31%.
At Cathepsin K, `CCCC[C@H](NC(=O)O[C@@H](C)CC1CCCCC1)C(=O)c1nnc(-c2ccccc2)o1` displayed an IC50 of 4 µM.
Still for that read-out and setting: to `CCCC[C@H](NC(=O)O[C@@H](C)CC1CCCCC1)C(=O)c1nc(C(F)(F)F)cs1` belongs 13 µM; to `CCCC[C@H](NC(=O)OC(C(C)C)C(C)C)C(=O)c1cccs1`, 1.9 µM.
`CCCC[C@H](NC(=O)OC(C(C)C)C(C)C)C(=O)c1ccccc1` displayed an inhibition in experiment [1] of 2%.
In experiment [1], `CCOC(=O)c1csc(C(=O)CNC(=O)O[C@@H](C)CC2CCCCC2)n1` showed an inhibition of 0%.
For the compound `CCOC(=O)c1csc(C(=O)CNC(=O)[C@H](CC(C)C)NC(=O)OCc2ccccc2)n1`, the inhibition in experiment [1] was 20%.
On the same count and under the same terms, to `CCCC[C@H](NC(=O)O[C@@H](C)CC1CCCCC1)C(=O)c1nc(C)c(C(=O)OCC)s1` belongs 10%.
For `CCCC[C@H](NC(=O)O[C@@H](C)CC1CCCCC1)C(=O)c1nccs1`, the IC50 on Cathepsin K was 3.1 µM.
Same read-out and setting: next, `CCCOc1ccccc1C(=O)NCC(=O)c1nc(C(=O)OCC)cs1`: > 13 µM; `CCCC[C@H](NC(=O)O[C@@H](C)CC1CCCCC1)C(=O)c1noc(C)n1`: 8.1 µM; `CCCC[C@H](NC(=O)[C@H](CC(C)C)NC(=O)OCc1ccccc1)C(=O)c1nc(C(=O)OCC)cs1`: 13 µM.
Same read-out and setting: next, `CCCC[C@H](NC(=O)OC(CC)Cc1ccccc1)C(=O)c1nc(C(=O)OCC)cs1` (stereo partly specified): > 13 µM.
